Experimental data taken from paper PMC5442318, “Hundreds of dual-stage antimalarial molecules discovered by a functional gametocyte screen” (Nature Communications, 2017).
pIC50: −log10 of the molar value. Like-named read-outs stand apart in the source and are kept apart here.

Columns and labels:
[1] = system: HepG2 cells; assay: HepG2 cytotoxicity assay; format: cell-based
Summary of the method: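 After compound incubation, plates and CellTiter-Glo reagent were brought to room temperature for 30 min. The reagent was then added, and luminescence was read after a 10 min room-temperature stabilization.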

[2] = system: P. falciparum female gametes; assay: Pf FGAA with compounds added 30 min after triggering gametocyte activation (gamete-targeting); format: cell-based, Plasmodium falciparum NF54; conditions: 0h incubation time
[3] = system: P. falciparum stages IV–V gametocytes; assay: Gametocytocidal ATP-depletion assay (gametocyte ATP bioluminescence); format: cell-based, Plasmodium falciparum
Summary of the method: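 Purified stage IV–V gametocytes (12,500/well) incubated with compound for 48 h at 37 °C under 3% O2/5% CO2. ATP measured by BacTiter-Glo luminescence as a viability surrogate; hits tested at 2 μM single concentration.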

[4] = system: P. falciparum asexual blood stages; conditions: cited from earlier work; for pIC50: read-out: Pf Asexual blood stages XC50
[5] = system: P. falciparum stage V female gametocytes; assay: P. falciparum female gametocyte activation assay (Pf FGAA), 24 h or 48 h preincubation, Pfs25 expression readout; format: cell-based, Plasmodium falciparum NF54; conditions: for IC50: 24h incubation time, read-out: Pf FGAA IC50 (µM) 24h; for Pf FGAA classification: SLOW / FAST / GAMETE from activity at 48h, 24h, 0h incubation; for pIC50: mean, read-out: Gametocytes mean Pf FGAA IC50
Summary of the method: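 Purified stage V gametocytes from P. falciparum NF54 gametocyte cultures were exposed to compounds for 24 h or 48 h at 37 °C under 3% O2/5% CO2, then activated by temperature drop plus xanthurenic acid. Activated females were stained with Cy3-anti-Pfs25 (0.5 μg ml^−1) for 24 h at 26 °C and counted by high-content imaging; pIC50 by nonlinear regression.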

[6] = TCAMS data, ref 1 (Gamo et al., 2010)
[7] = TCAMS data, ref 1 (Gamo, F. J. et al., Nature 465, 305-310, 2010)
[8] = TCAMS asexual blood stage data, ref 1 (Gamo, F. J. et al., Nature 465, 305-310, 2010)
[9] = P. falciparum female gametocytes

Structure (SMILES) | HepG2 cells mean TOX50 ([1]; mean) [µM] | IC50 [2] [µM] | Gametocytes mean ATP inhibition at 2µM (%) [3] [%] | pIC50 [4, 6] | Pf Asexual stages XC50 [4, 7] [µM] | IC50 [5] [µM] | Pf FGAA classification [5] | pIC50 [5] | HepG2 cells mean TOX50 ([1]; HepG2 cells; mean) [µM] | Gametocytes mean ATP inhibition at 2µM [3] [%] | pIC50 [4, 8] | pIC50 [5, 9] | HepG2 cells mean TOX50 ([1]; mean; HepG2 cells) [µM] | pIC50 ([5]; P. falciparum female gametocyte activation assay) | HepG2 cells TOX50 ([1]; HepG2 cells) [µM]
Cc1cc(C(F)(F)F)cc(-n2ncc(-c3ccc(C(=O)NCc4ccccc4N)cc3)c2N)n1.O=C(O)C(F)(F)F [TCMDC-136658] | 26.82 | > 20 | -1.42 | 6.35 | 0.45 | 12.5 | SLOW | 5.84 | – | – | – | – | – | – | –
CC(C)N1CCN(C(CN2CCN(CCCOc3ccccc3-c3ccccc3)CC2)c2ccc(F)cc2)CC1.Cl (centres unmarked) [TCMDC-135499] | – | 12.3 | – | – | 0.79 | 5.74 | SLOW | – | 4.32 | -15.92 | 6.10 | 5.85 | – | – | –
CC(=O)Nc1ccc2[nH]cc(C3CCN(CC4CCC(NC(=O)/C=C/c5ccc(Cl)c(Cl)c5)CC4)CC3)c2n1 (centres unmarked) [TCMDC-140114] | 13.49 | > 20 | -7.40 | 6.59 | 0.26 | 15.5 | SLOW | 5.76 | – | – | – | – | – | – | –
CN(/N=C/C=C/c1ccc(Cl)cc1)c1nc(NCCc2ccc(O)cc2)nc(N2CCNCC2)n1 [TCMDC-138546] | 13.18 | > 20 | -1.95 | 6.06 | 0.87 | 11.2 | SLOW | 5.71 | – | – | – | – | – | – | –
CN1CCC(NCc2cccc(-c3ccc(S(=O)(=O)NCc4ccccc4)c(F)c3)c2)CC1.O=C(O)C(F)(F)F [TCMDC-132219] | – | > 20 | – | – | 0.32 | 12.2 | SLOW | – | 5.13 | -1.59 | 6.49 | 5.58 | – | – | –
CC(C)(CNC(=O)[C@@H]1CCCCN1)c1nc(-c2ccc(Cl)c(O)c2)c(-c2ccncc2)[nH]1.Cl [TCMDC-141079] | – | 2.06 | – | – | 0.84 | 2.48 | GAMETE | – | – | -6.33 | 6.08 | – | 38.91 | 5.80 | –
CC(C)(C)OC(=O)NCc1ccc(Nc2nnc(-c3cccc(C(=O)NCc4cc(C(F)(F)F)cc(C(F)(F)F)c4)c3)o2)cc1 [TCMDC-135229] | – | > 20 | – | – | 0.87 | 2.41 | SLOW | – | 21.43 | -6.34 | 6.06 | 5.50 | – | – | –
C[C@H](Cc1ccc(OCCCCCCOc2ccc(C[C@@H](C)N[C@H](C)c3ccccc3)cc2)cc1)NC[C@H](O)c1cccc(Cl)c1.Cl [TCMDC-131564] | – | > 20 | – | – | 0.24 | 2.89 | SLOW | – | 4.28 | 38.50 | 6.62 | 6.14 | – | – | –
N#Cc1ccc(-c2ccc(C(=O)NCC3CCN(CCN4CCC(c5ccc6c(c5OCC(N)=O)CCCC6)CC4)CC3)cc2)cc1 [TCMDC-134563] | – | > 20 | – | – | 0.44 | 5.88 | SLOW | – | 6.17 | -20.83 | 6.36 | 5.90 | – | – | –
Clc1ccc(-c2csc3ncnc(Cl)c23)cc1 [TCMDC-123811] | – | > 20 | – | – | 0.46 | 3.25 | SLOW | – | 94.46 | -1.98 | 6.34 | 5.80 | – | – | –
c1ccn2c(Sc3ncnc4sccc34)ncc2c1 [TCMDC-124602] | – | 14.4 | – | – | 0.66 | > 20 | SLOW | – | >100 | 12.16 | 6.18 | 6.62 | – | – | >100
